# From article PMC3214022, “Plasmodium falciparum Parasites Are Killed by a Transition State Analogue of Purine Nucleoside Phosphorylase in a Primate Animal Model” (PLoS ONE, 2011)
# Several values for one entry are separate records, joined by “and”; a condition that tells them apart may be missing. Equal values may be shown once.
# Assay: Weights, CBC and blood chemistry, Table S1 sheet PD-1 (efficacy study in P. falciparum-infected Aotus)
# Type: in vivo, Aotus lemurinus lemurinus
# Conditions: IV 10 mg/kg once a day/3 days
# Description: Laboratory bred Aotus lemurinus lemurinus monkeys (0.75–0.89 kg) were maintained as described. […] Blood samples were collected before the treatment started (t = 0), 0.05 h, 0.5 h, 1 h, 2 h, 6 h, 24 h, 48 h, and 6, 12 and 18 days after the first dose from each monkey and processed as described below. Pharmacokinetic parameters were calculated using PKSolver. For efficacy studies, Aotus monkeys were inoculated intravenously with 5×10^6 parasites of the FVO strain of P. falciparum in an approved treatment protocol. […] Parasitaemia was determined by Giemsa-stained thick blood smears prepared daily from the marginal ear vein [41]. Blood samples were collected from each monkey and transferred to tubes containing lithium heparin, centrifuged and both plasma and blood cells were frozen at −80 °C until analysis. Animals received a physical examination and blood chemistry profiles were monitored after treatment as described previously. Any monkey not responding appropriately to treatment was cured of its infection with mefloquine (40 mg kg^−1). […] The day of clearance is defined as the first of three consecutive days in which the thick blood films are parasite negative. The day of recrudescence is the first of three consecutive days of positive thick blood films after a period of clearance. Suppression is defined as a transient decrease in the parasite count post-treatment without clearance.
smiles,measurement,setting,value
"Nc1nc2c(CN3CC(O)C(CO)C3)c[nH]c2c(=O)[nH]1 (centres unmarked) [BCX4945, 4′-deaza-1′-aza-2′-deoxy-1′-(9-methylene)-Immucillin-G]",Blood Urea Nitrogen,"day 9, 10 mg/kg",10.65 mg/dL and 14.3 mg/dL and 10.85 mg/dL and 10.75 mg/dL and 11.6 mg/dL and 17.75 mg/dL
same,Creatinine,"day 9, 10 mg/kg",0.59 mg/dL and 0.587 mg/dL and 0.522 mg/dL and 0.609 mg/dL and 0.7 mg/dL and 0.665 mg/dL
same,Erythrocytes,"day 9, 10 mg/kg",4.53e+06 µL⁻¹ and 4.52e+06 µL⁻¹ and 3.97e+06 µL⁻¹ and 3.87e+06 µL⁻¹ and 3.32e+06 µL⁻¹ and 5.16e+06 µL⁻¹
same,Granulocytes (%),"day 9, 10 mg/kg",19.7% and 21.4% and 19.2% and 30% and 21.1% and 36.1%
same,Hematocrit,"day 9, 10 mg/kg",36.1% and 34.4% and 30.6% and 31.6% and 28.1% and 40.4%
same,Hemoglobin,"day 9, 10 mg/kg",12 g/dL and 11.8 g/dL and 10.3 g/dL and 10.5 g/dL and 9.3 g/dL and 13.8 g/dL
same,Leucocytes,"day 9, 10 mg/kg",16700 µL⁻¹ and 22100 µL⁻¹ and 19500 µL⁻¹ and 11100 µL⁻¹ and 19200 µL⁻¹ and 19700 µL⁻¹
same,Lymphocytes (%),"day 9, 10 mg/kg",65.5% and 44.6% and 64.7% and 56.2% and 66.9% and 50.4%
same,Mean Corpuscular Hemoglobin,"day 9, 10 mg/kg",26.5 pg and 26.1 pg and 25.9 pg and 27.1 pg and 28.1 pg and 26.7 pg
same,Mean Corpuscular Volume,"day 9, 10 mg/kg",79.7 fL and 76.1 fL and 77.1 fL and 81.8 fL and 84.7 fL and 78.2 fL
same,Mean Hemoglobin Content,"day 9, 10 mg/kg",33.3 g/dL and 34.4 g/dL and 33.6 g/dL and 33.2 g/dL and 33.1 g/dL and 34.1 g/dL
same,Mean Platelet Volume,"day 9, 10 mg/kg",11.9 fL and 15.2 fL and 12.6 fL and 13.1 fL and 13.2 fL and 13.5 fL
same,Platelets,"day 9, 10 mg/kg",321000 µL⁻¹ and 270000 µL⁻¹ and 322000 µL⁻¹ and 237000 µL⁻¹ and 267000 µL⁻¹ and 336000 µL⁻¹
same,Red Cell Distribution Width,"day 9, 10 mg/kg",12.8% and 11.8% and 11.5% and 13.6% and 12.1%
same,Reticulocytes,"day 9, 10 mg/kg",1.7% and 1.2% and 2.3% and 1.8% and 1.3% and 1.9%
same,WEIGHT,"day 9, 10 mg/kg",780 g and 698 g and 888 g and 790 g and 930 g and 685 g
same,Creatinine,"day 12, 10 mg/kg",0.555 mg/dL and 0.539 mg/dL and <0.500 mg/dL and 0.508 mg/dL and 0.604 mg/dL and 0.605 mg/dL
same,Erythrocytes,"day 12, 10 mg/kg",4.01e+06 µL⁻¹ and 4.03e+06 µL⁻¹ and 3.46e+06 µL⁻¹ and 5.43e+06 µL⁻¹ and 2.96e+06 µL⁻¹ and 4.66e+06 µL⁻¹
same,Glutamate Pyruvate Transaminase,"day 12, 10 mg/kg",41.8 U/L and 40.8 U/L and 52.6 U/L and 38.7 U/L and 64.9 U/L and 39.6 U/L
same,Hematocrit,"day 12, 10 mg/kg",31.6% and 31.2% and 27.1% and 43.9% and 26.3% and 36.3%
same,Hemoglobin,"day 12, 10 mg/kg",10.9 g/dL and 10.7 g/dL and 9.2 g/dL and 14.9 g/dL and 8.6 g/dL and 12.7 g/dL
same,Leucocytes,"day 12, 10 mg/kg",36300 µL⁻¹ and 31000 µL⁻¹ and 41200 µL⁻¹ and 29300 µL⁻¹ and 42600 µL⁻¹ and 45600 µL⁻¹
same,Lymphocytes (%),"day 12, 10 mg/kg",72.6% and 57.1% and 73% and 56% and 73.9% and 60.8%
same,Lymphocytes (x 103/ul),"day 12, 10 mg/kg",26.4 x 103/ul and 17.7 x 103/ul and 30.1 x 103/ul and 16.4 x 103/ul and 31.5 x 103/ul and 27.7 x 103/ul
same,Mean Corpuscular Hemoglobin,"day 12, 10 mg/kg",27.2 pg and 26.5 pg and 27.5 pg and 29 pg and 27.4 pg
same,Mean Corpuscular Volume,"day 12, 10 mg/kg",78.8 fL and 77.3 fL and 78.4 fL and 80.9 fL and 88.8 fL and 78 fL
same,Mean Hemoglobin Content,"day 12, 10 mg/kg",34.5 g/dL and 34.3 g/dL and 33.8 g/dL and 34.1 g/dL and 32.7 g/dL and 35.1 g/dL
same,Mean Platelet Volume,"day 12, 10 mg/kg",17.3 fL and 13.7 fL and 12.9 fL and 18.2 fL and 11.1 fL
same,Monocytes (x 103/ul),"day 12, 10 mg/kg",3.5 x 103/ul and 4.3 x 103/ul and 6 x 103/ul and 4.1 x 103/ul
same,Red Cell Distribution Width,"day 12, 10 mg/kg",13.5% and 12.4% and 12.7% and 11.4% and 14.8% and 12.2%
same,Reticulocytes,"day 12, 10 mg/kg",1.7% and 2.1% and 2.5% and 2.6% and 1.3%
same,WEIGHT,"day 12, 10 mg/kg",766 g and 680 g and 832 g and 849 g and 684 g
same,Blood Urea Nitrogen,"day 19, 10 mg/kg",19.25 mg/dL and <10.0 mg/dL and 15.3 mg/dL and 13.8 mg/dL and 15.4 mg/dL and 13.5 mg/dL
same,Creatinine,"day 19, 10 mg/kg",0.514 mg/dL and <0.500 mg/dL and 0.504 mg/dL and 0.562 mg/dL and 0.507 mg/dL
same,Erythrocytes,"day 19, 10 mg/kg",4.88e+06 µL⁻¹ and 4.44e+06 µL⁻¹ and 4.27e+06 µL⁻¹ and 4e+06 µL⁻¹ and 4.12e+06 µL⁻¹ and 5.22e+06 µL⁻¹
same,Glutamate Pyruvate Transaminase,"day 19, 10 mg/kg",29 U/L and 20.1 U/L and 31.3 U/L and 23.9 U/L and 26.3 U/L and 21.8 U/L
same,Hemoglobin,"day 19, 10 mg/kg",14.2 g/dL and 11.9 g/dL and 11.8 g/dL and 12.5 g/dL
same,Leucocytes,"day 19, 10 mg/kg",30100 µL⁻¹ and 23700 µL⁻¹ and 16700 µL⁻¹ and 22900 µL⁻¹ and 19600 µL⁻¹ and 17100 µL⁻¹
same,Lymphocytes (%),"day 19, 10 mg/kg",87.7% and 48.9% and 76.9% and 73.7% and 77.1% and 48.7%
same,Mean Corpuscular Hemoglobin,"day 19, 10 mg/kg",29 pg and 26.8 pg and 27.5 pg and 29.7 pg and 30.3 pg and 27.1 pg
same,Mean Corpuscular Volume,"day 19, 10 mg/kg",87.8 fL and 79.1 fL and 84.9 fL and 91.2 fL and 93.4 fL and 81.3 fL
same,Mean Hemoglobin Content,"day 19, 10 mg/kg",33.1 g/dL and 33.9 g/dL and 32.4 g/dL and 32.6 g/dL and 32.5 g/dL and 33.4 g/dL
same,Mean Platelet Volume,"day 19, 10 mg/kg",15.6 fL and 12.8 fL and 12.3 fL and 14.4 fL and 14.8 fL and 13.8 fL
same,Monocytes (%),"day 19, 10 mg/kg",5.6% and 6.4% and 11.4% and 6.6%
same,Red Cell Distribution Width,"day 19, 10 mg/kg",23.9% and 15.2% and 21.7% and 23.4% and 22.5% and 17.2%
same,Reticulocytes,"day 19, 10 mg/kg",1.5% and 2% and 2.3% and 2.2%
same,WEIGHT,"day 19, 10 mg/kg",777 g and 684 g and 852 g and 754 g and 875 g and 690 g
same,Blood Urea Nitrogen,"day 25, 10 mg/kg",27.95 mg/dL and 24.85 mg/dL and 23.3 mg/dL and 19.35 mg/dL and 20.25 mg/dL
same,Creatinine,"day 25, 10 mg/kg",<0.500 mg/dL and 0.563 mg/dL and 0.659 mg/dL and 0.585 mg/dL
same,Erythrocytes,"day 25, 10 mg/kg",4.42e+06 µL⁻¹ and 5.34e+06 µL⁻¹ and 5.57e+06 µL⁻¹ and 4.57e+06 µL⁻¹ and 4.75e+06 µL⁻¹
same,Glutamate Pyruvate Transaminase,"day 25, 10 mg/kg",21.7 U/L and 23.8 U/L and 25 U/L and 26.2 U/L
same,Hematocrit,"day 25, 10 mg/kg",35.7% and 44.6% and 40.2% and 42.6%
same,Hemoglobin,"day 25, 10 mg/kg",12.1 g/dL and 15.2 g/dL and 15.3 g/dL and 13.4 g/dL and 14.4 g/dL
same,Leucocytes,"day 25, 10 mg/kg",11500 µL⁻¹ and 12400 µL⁻¹ and 15400 µL⁻¹ and 12700 µL⁻¹ and 10500 µL⁻¹
same,Lymphocytes (%),"day 25, 10 mg/kg",72.6% and 81.9% and 63.9% and 71.1% and 64.3%
same,Lymphocytes (x 103/ul),"day 25, 10 mg/kg",8.3 x 103/ul and 10.2 x 103/ul and 9.8 x 103/ul and 9 x 103/ul and 6.8 x 103/ul
same,Mean Corpuscular Hemoglobin,"day 25, 10 mg/kg",27.3 pg and 28.5 pg and 27.5 pg and 29.3 pg and 30.2 pg
same,Mean Corpuscular Volume,"day 25, 10 mg/kg",80.8 fL and 83.6 fL and 80.1 fL and 88.1 fL and 89.5 fL
same,Mean Hemoglobin Content,"day 25, 10 mg/kg",33.8 g/dL and 34.1 g/dL and 34.3 g/dL and 33.2 g/dL and 33.7 g/dL
same,Mean Platelet Volume,"day 25, 10 mg/kg",12 fL and 13 fL and 11 fL
same,Monocytes (%),"day 25, 10 mg/kg",11.3% and 6.2% and 5.7% and 7.9% and 8.2%
same,Monocytes (x 103/ul),"day 25, 10 mg/kg",1.3 x 103/ul and 0.8 x 103/ul and 0.9 x 103/ul and 1 x 103/ul
same,Platelets,"day 25, 10 mg/kg",342000 µL⁻¹ and 291000 µL⁻¹ and 454000 µL⁻¹ and 397000 µL⁻¹ and 336000 µL⁻¹
same,Red Cell Distribution Width,"day 25, 10 mg/kg",16.7% and 18.3% and 15.7% and 19.1% and 17.5%
same,Reticulocytes,"day 25, 10 mg/kg",2.1% and 1.8% and 1.7% and 2.6% and 2.4%
same,WEIGHT,"day 25, 10 mg/kg",825 g and 760 g and 690 g and 687 g
same,Blood Urea Nitrogen,day 26,16.65 mg/dL
same,Creatinine,day 26,0.537 mg/dL
same,Erythrocytes,day 26,4.54e+06 µL⁻¹
same,Glutamate Pyruvate Transaminase,day 26,18.2 U/L
same,Granulocytes (%),day 26,46.7%
same,Granulocytes (x 103/ul),day 26,7.7 x 103/ul
same,Hematocrit,day 26,35.9%
same,Hemoglobin,day 26,12 g/dL
same,Leucocytes,day 26,16500 µL⁻¹
same,Lymphocytes (%),day 26,45.8%
same,Lymphocytes (x 103/ul),day 26,7.6 x 103/ul
same,Mean Corpuscular Hemoglobin,day 26,26.3 pg
same,Mean Corpuscular Volume,day 26,78.9 fL
same,Mean Hemoglobin Content,day 26,33.4 g/dL
same,Mean Platelet Volume,day 26,12.5 fL
same,Monocytes (%),day 26,7.5%
same,Monocytes (x 103/ul),day 26,1.2 x 103/ul
same,Platelets,day 26,314000 µL⁻¹
same,Red Cell Distribution Width,day 26,16.2%
same,Reticulocytes,day 26,1.9%
same,WEIGHT,day 26,910 g
same,Creatinine,"day -2, 10 mg/kg",0.623 mg/dL and 0.539 mg/dL and 0.583 mg/dL and 0.677 mg/dL and 0.579 mg/dL and 0.564 mg/dL
same,Erythrocytes,"day -2, 10 mg/kg",6.51e+06 µL⁻¹ and 6.11e+06 µL⁻¹ and 6.26e+06 µL⁻¹ and 5.03e+06 µL⁻¹ and 5.52e+06 µL⁻¹ and 5.2e+06 µL⁻¹
same,Hematocrit,"day -2, 10 mg/kg",50% and 47.6% and 40.6% and 44.3% and 42.4%
same,Hemoglobin,"day -2, 10 mg/kg",17.2 g/dL and 16.6 g/dL and 16.4 g/dL and 14.2 g/dL and 15.2 g/dL
same,Leucocytes,"day -2, 10 mg/kg",18500 µL⁻¹ and 15700 µL⁻¹ and 15900 µL⁻¹ and 16400 µL⁻¹ and 10600 µL⁻¹ and 21000 µL⁻¹
same,Mean Corpuscular Hemoglobin,"day -2, 10 mg/kg",26.4 pg and 27.2 pg and 26.3 pg and 28.2 pg and 27.5 pg and 33.1 pg
same,Mean Corpuscular Volume,"day -2, 10 mg/kg",76.8 fL and 78 fL and 76.1 fL and 80.7 fL and 80.2 fL and 81.5 fL
same,Mean Hemoglobin Content,"day -2, 10 mg/kg",34.4 g/dL and 34.9 g/dL and 34.5 g/dL and 34.3 g/dL and 40.6 g/dL
